Assay results reported in patent US20260014232A1, “Pharmaceutical Composition of GLP-1 and GIP Receptor Dual Agonist and Use Thereof” (Jiangsu Hengrui Pharmaceuticals Co., Ltd., priority 2021, published 2026).
Starred links: 1 amine or outer side, 2 acyl side, 3 side chain; linkers in the order of their positions; H or OH if unused. Non-standard residues stand in square brackets, D forms with d. Residues, ends and D or L forms follow the SMILES beside them. Groups on a side chain read outwards from the residue. *: point of attachment. C20 diacid = O=C(O)CCCCCCCCCCCCCCCCCCC(=O)*; γGlu = O=C(O)[C@H](CCC(=O)[*:2])N[*:1]; AEEA = NCCOCCOCC(=O)O; Aib = CC(C)(N)C(=O)O

Experiment: Body weight of diet-induced-obesity mice after subcutaneous administration
Assay type: in vivo, C57BL/6 mice
Settings: for rate of body weight change: DIO mice
Protocol: High-fat food-induced-obesity male C57BL/6 mice (weighing 35-55 g, aged 10-12 weeks, purchased from Shanghai Jiesijie Laboratory Animal Co., Ltd.) were tested. […] According to the experimental design, the body weight of each mouse was measured and recorded on day 0, day 3, day 6, and so on to day 27, the average body weight of each group of mice was calculated, and body weight change curves were plotted by taking the body weight on the first day as the standard. At the end, the fat and other visceral organs of each part of the mice were taken out and weighed, and the viscera/brain ratio for fat in each part of each mouse was calculated. The effect of the drug on the fat was determined by comparing the change in the viscera/brain ratio for fat of different parts of each group of mice.

## CC[C@H](C)[C@H](NC(=O)[C@H](CCCCN)NC(=O)[C@H](CCC(=O)O)NC(=O)[C@H](CCCCNC(=O)COCCOCCNC(=O)COCCOCCNC(=O)CC[C@H](NC(=O)CCCCCCCCCCCCCCCCCCC(=O)O)C(=O)O)NC(=O)[C@H](Cc1ccc(O)cc1)NC(=O)[C@@H](NC(=O)[C@H](CO)NC(=O)[C@H](Cc1ccc(O)cc1)NC(=O)[C@H](CC(=O)O)NC(=O)[C@H](CO)NC(=O)[C@@H](NC(=O)[C@H](Cc1ccccc1)NC(=O)[C@@H](NC(=O)CNC(=O)[C@H](CCC(=O)O)NC(=O)C(C)(C)NC(=O)[C@@H](N)Cc1ccc(O)cc1)[C@@H](C)O)[C@@H](C)O)[C@@H](C)CC)C(=O)N[C@@H](C)C(=O)N[C@@H](C)C(=O)N[C@@H](CCC(N)=O)C(=O)N[C@@H](CCC(=O)O)C(=O)N[C@@H](Cc1ccccc1)C(=O)N[C@H](C(=O)N[C@@H](CC(N)=O)C(=O)N[C@@H](Cc1c[nH]c2ccccc12)C(=O)N[C@@H](CC(C)C)C(=O)N[C@@H](CC(C)C)C(=O)N[C@@H](C)C(=O)NCC(=O)NCC(=O)N1CCC[C@H]1C(=O)N[C@@H](CO)C(=O)N[C@@H](CO)C(=O)NCC(=O)N[C@@H](C)C(=O)N1CCC[C@H]1C(=O)N1CCC[C@H]1C(=O)N1CCC[C@H]1C(=O)N[C@@H](CO)C(N)=O)C(C)C [Compound 18#] (H-Y[Aib]EGTFTSDYSIYK([AEEA-AEEA-γGlu-C20 diacid])EKIAAQEFVNWLLAGGPSSGAPPPS-NH2)
3 nmol/kg s.c. every 3 days, day 0 (before administration)
  rate of body weight change: 0%
3 nmol/kg s.c. every 3 days, day 1
  rate of body weight change: −5%
3 nmol/kg s.c. every 3 days, day 2
  rate of body weight change: −6.3%
3 nmol/kg s.c. every 3 days, day 3
  rate of body weight change: −5.8%
3 nmol/kg s.c. every 3 days, day 4
  rate of body weight change: −9.1%
3 nmol/kg s.c. every 3 days, day 5
  rate of body weight change: −10.3%
3 nmol/kg s.c. every 3 days, day 6
  rate of body weight change: −10%
3 nmol/kg s.c. every 3 days, day 7
  rate of body weight change: −13%
3 nmol/kg s.c. every 3 days, day 8
  rate of body weight change: −13.9%
3 nmol/kg s.c. every 3 days, day 9
  rate of body weight change: −13.9%
3 nmol/kg s.c. every 3 days, day 10
  rate of body weight change: −16.6%
3 nmol/kg s.c. every 3 days, day 11
  rate of body weight change: −16.4%
3 nmol/kg s.c. every 3 days, day 12
  rate of body weight change: −15.7%
3 nmol/kg s.c. every 3 days, day 13
  rate of body weight change: −18.2%
3 nmol/kg s.c. every 3 days, day 14
  rate of body weight change: −17.1%
3 nmol/kg s.c. every 3 days, day 15
  rate of body weight change: −15.7%
3 nmol/kg s.c. every 3 days, day 16
  rate of body weight change: −18.6%
3 nmol/kg s.c. every 3 days, day 17
  rate of body weight change: −18.3%
3 nmol/kg s.c. every 3 days, day 18
  rate of body weight change: −17.9%
3 nmol/kg s.c. every 3 days, day 19
  rate of body weight change: −20.5%
3 nmol/kg s.c. every 3 days, day 20
  rate of body weight change: −19.8%
3 nmol/kg s.c. every 3 days, day 21
  rate of body weight change: −17.8%
3 nmol/kg s.c. every 3 days, day 22
  rate of body weight change: −19.3%
3 nmol/kg s.c. every 3 days, day 23
  rate of body weight change: −19.1%
3 nmol/kg s.c. every 3 days, day 24
  rate of body weight change: −17.3%
3 nmol/kg s.c. every 3 days, day 25
  rate of body weight change: −19.9%
3 nmol/kg s.c. every 3 days, day 26
  rate of body weight change: −18.8%
3 nmol/kg s.c. every 3 days, day 27
  rate of body weight change: −16.1%
3 nmol/kg s.c. every 3 days, day 28
  rate of body weight change: −19.2%
10 nmol/kg s.c. every 3 days, day 0 (before administration)
  rate of body weight change: 0%
10 nmol/kg s.c. every 3 days, day 1
  rate of body weight change: −6.2%
10 nmol/kg s.c. every 3 days, day 2
  rate of body weight change: −8.6%
10 nmol/kg s.c. every 3 days, day 3
  rate of body weight change: −9.4%
10 nmol/kg s.c. every 3 days, day 4
  rate of body weight change: −12.7%
10 nmol/kg s.c. every 3 days, day 5
  rate of body weight change: −14.5%
10 nmol/kg s.c. every 3 days, day 6
  rate of body weight change: −15%
10 nmol/kg s.c. every 3 days, day 7
  rate of body weight change: −18.3%
10 nmol/kg s.c. every 3 days, day 8
  rate of body weight change: −20.1%
10 nmol/kg s.c. every 3 days, day 9
  rate of body weight change: −20.3%
10 nmol/kg s.c. every 3 days, day 10
  rate of body weight change: −23.4%
10 nmol/kg s.c. every 3 days, day 11
  rate of body weight change: −23.9%
10 nmol/kg s.c. every 3 days, day 12
  rate of body weight change: −23.5%
10 nmol/kg s.c. every 3 days, day 13
  rate of body weight change: −26.4%
10 nmol/kg s.c. every 3 days, day 14
  rate of body weight change: −25.1%
10 nmol/kg s.c. every 3 days, day 15
  rate of body weight change: −23.4%
10 nmol/kg s.c. every 3 days, day 16
  rate of body weight change: −26.6%
10 nmol/kg s.c. every 3 days, day 17
  rate of body weight change: −25.7%
10 nmol/kg s.c. every 3 days, day 18
  rate of body weight change: −24.6%
10 nmol/kg s.c. every 3 days, day 19
  rate of body weight change: −27.5%
10 nmol/kg s.c. every 3 days, day 20
  rate of body weight change: −27.3%
10 nmol/kg s.c. every 3 days, day 21
  rate of body weight change: −24.8%
10 nmol/kg s.c. every 3 days, day 22
  rate of body weight change: −28.1%
10 nmol/kg s.c. every 3 days, day 23
  rate of body weight change: −27.1%
10 nmol/kg s.c. every 3 days, day 24
  rate of body weight change: −26%
10 nmol/kg s.c. every 3 days, day 25
  rate of body weight change: −28.5%
10 nmol/kg s.c. every 3 days, day 26
  rate of body weight change: −27.8%
10 nmol/kg s.c. every 3 days, day 27
  rate of body weight change: −24.8%
10 nmol/kg s.c. every 3 days, day 28
  rate of body weight change: −28.2%
100 nmol/kg s.c. every 3 days, day 0 (before administration)
  rate of body weight change: 0%
100 nmol/kg s.c. every 3 days, day 1
  rate of body weight change: −6.3%
100 nmol/kg s.c. every 3 days, day 2
  rate of body weight change: −10.9%
100 nmol/kg s.c. every 3 days, day 3
  rate of body weight change: −13.2%
100 nmol/kg s.c. every 3 days, day 4
  rate of body weight change: −15.7%
100 nmol/kg s.c. every 3 days, day 5
  rate of body weight change: −19.2%
100 nmol/kg s.c. every 3 days, day 6
  rate of body weight change: −21.8%
100 nmol/kg s.c. every 3 days, day 7
  rate of body weight change: −24.7%
100 nmol/kg s.c. every 3 days, day 8
  rate of body weight change: −27.6%
100 nmol/kg s.c. every 3 days, day 9
  rate of body weight change: −29.6%
100 nmol/kg s.c. every 3 days, day 10
  rate of body weight change: −31.6%
100 nmol/kg s.c. every 3 days, day 11
  rate of body weight change: −33.7%
100 nmol/kg s.c. every 3 days, day 12
  rate of body weight change: −34.4%
100 nmol/kg s.c. every 3 days, day 13
  rate of body weight change: −35.6%
100 nmol/kg s.c. every 3 days, day 14
  rate of body weight change: −36.7%
100 nmol/kg s.c. every 3 days, day 15
  rate of body weight change: −35.7%
100 nmol/kg s.c. every 3 days, day 17
  rate of body weight change: −38.2%
100 nmol/kg s.c. every 3 days, day 18
  rate of body weight change: −37.8%
100 nmol/kg s.c. every 3 days, day 19
  rate of body weight change: −38.5%
100 nmol/kg s.c. every 3 days, day 20
  rate of body weight change: −39%
100 nmol/kg s.c. every 3 days, day 21
  rate of body weight change: −37.4%
100 nmol/kg s.c. every 3 days, day 22
  rate of body weight change: −38.3%
100 nmol/kg s.c. every 3 days, day 23
  rate of body weight change: −38%
100 nmol/kg s.c. every 3 days, day 24
  rate of body weight change: −36.8%
100 nmol/kg s.c. every 3 days, day 25
  rate of body weight change: −38.6%
100 nmol/kg s.c. every 3 days, day 26
  rate of body weight change: −38.9%
100 nmol/kg s.c. every 3 days, day 27
  rate of body weight change: −36.8%
100 nmol/kg s.c. every 3 days, day 28
  rate of body weight change: −37.9%
high-fat food-induced-obesity mice, 10 nmol/kg, day 27
  body weight reduced: more than 20.0%
